In brackets after ≈: the same amount, converted by molar mass. One block for each compound: values may come before it.
Legend:
[1] = Dynamic vapour experiments (Water Vapour Sorption, 25° C.); format: physicochemical; details: for mass loss in the first desorption cycle / initial drying step (0% rh) / total mass loss in the second desorption cycle: Water Vapour Sorption; for maximum weight gain upon water vapour adsorption (assembly of water molecules in the lattice): at elevated rh
Description: (§1) A SMS DVS Intrinsic is used for the dynamic vapour experiments. The results are obtained by standard techniques as described in Rolf Hilfiker, ‘Polymorphism in the Pharmaceutical Industry’, Wiley-VCH. Weinheim 2006 (Chapter 9: Water Vapour Sorption, and references therein). […] Upon water vapour adsorption, an assembly of water molecules in the lattice is observed, with a maximum weight gain of approx. 8 wt % at elevated rh. In the second desorption cycle a total mass loss of approx. 9.9 wt % is observed. For a Cilengitide Dihydrate Di-Methanolate, the calculated Methanol content equals 9.3 wt %.
as §1, with “6.4” for “8”, “9.2” for “9.9”, “Di-Ethanolate,” for “Di-Methanolate,”, “Ethanol” for “Methanol”, “12.5” for “9.3”

[2] = Thermodynamic stability of crystalline forms (slurry / vapour atmosphere); format: physicochemical
Description: Wetted material in this regard is preferably a mixture of the respective anhydrate with at least 5% by weight, more preferably at least 10% by weight and especially 20% by weight, of the respective aqueous system.
Upon water vapour adsorption, an assembly of water molecules in the lattice is observed, with a maximum weight gain of approx. 6.4 wt % at elevated rh. In the second desorption cycle a total mass loss of approx. 9.2 wt % is observed. For a Dihydrate Di-Ethanolate of the compound of formula Id, the calculated Ethanol content equals 12.5 wt %.
Also the pure form A1 can be manufactured by competitive slurry conversion experiments with a mixture of a pseudopolymorphic form (for example S1, S2, S3 or mixtures of these) and A1 (1:1) in Acetone, Acetonitrile, Isopropanol, physiological NaCl solution, Phosphate buffer (pH 7.4) and 1:1 (v:v) mixtures of Acetone, Acetonitrile, Isopropanol with Water at RT (25° C.).
Approx. 20 mg of a pseudopolymorphic form (for example S1, S2, S3 or mixtures of these) and 20 mg of form A1 of Cilengitide are dispersed in 200-700 μl solvent at room temperature. The dispersion is stirred for 5 days and additionally 26 days (long-term experiment) at RT (25° C.) by a magnetic stirrer and finally filtered. […]

[3] = Saturation solubility of Cilengitide solid forms in water and solvents; format: physicochemical
Protocol: Solubility in this regard is preferably refers to the saturation solubility, which is preferably the maximum mass of the respective compound, which can be solubilised or dissolved in a solvent at a respective temperature and at a specific pressure, preferably atmospheric pressure.
10 mL of solvent is placed in an amber glass ampul and sufficient substance is added to yield a distinct sediment that remains on the bottom after mixing thoroughly. After standing for 15 minutes and mixing again the ampuls are sealed and shaken in a thermostatically controlled water bath (20° C./16 hours or 25° C./16 hours, preferably 20° C./16 hours). Afterwards the ampuls are opened and the supernatant solution is filtered until the filtrate is clear. The content of the substance is determined photometrically in an aliquot by means of the specific adsorption coefficient. The respective dilution of the solvent without substance serves as blank. The solubility is expressed in the dimension of g substance in 100 mL or mg substance in 1 mL, preferably in mg substance in 1 mL. Preferably, this method is performed at normal atmospheric pressure and especially at the standardised “normal” atmospheric pressure, i.e. 1 atm=1.01325 bar.

[4] = Pharmacokinetic study in monkeys; details: in vivo, Cynomolgus monkey, animal 583, dose 11.8 mg/kg, suspension Cilengitide 300 mg/mL + DMPG 2 mg/mL, read-out: MSC1097999
Protocol: • Composition (Suspension) administered • Cilengitide: 300 mg/mL • DMPG: 2 mg/mL • Phenol: 0.5% • NaCl: 0.9% • Species/strain and number of animals • Monkey, Cynomolgus • Dose: 12 mg/kg (40 μL suspension/kg) • Sampling time points: 0.25, 0.5, 2, 4, 8 hours post dose: […]

mass loss in the first desorption cycle / initial drying step (0% rh) [1]: approx. 6.5 wt %
total mass loss in the second desorption cycle [1]: approx. 9.2 wt %
mass loss in the first desorption cycle / initial drying step (0% rh) ([1]; listed as crystalline form S2): approx. 6.5 wt %
total mass loss in the second desorption cycle ([1]; listed as crystalline form S2): approx. 9.2 wt %
maximum weight gain upon water vapour adsorption (assembly of water molecules in the lattice) [1]: approx. 6.4 wt %
maximum weight gain upon water vapour adsorption (assembly of water molecules in the lattice) ([1]; listed as crystalline form S2): approx. 6.4 wt %
thermodynamic stability of the form ([2]; atmosphere of 100% Ethanol vapour): thermodynamically stable form
Compound: cyclo-(Arg-Gly-Asp-DPhe-NMeVal) [form S2]

Solubility ([3]; solvent H2O/Acetone (1:1)): 22.7 mg/mL
mass loss in the first desorption cycle / initial drying step (0% rh) [1]: ca. 9 wt %
maximum weight gain upon water vapour adsorption (assembly of water molecules in the lattice) [1]: ca. 10 wt %
Compound: CC(C)[C@H]1C(=O)N[C@@H](CCCNC(=N)N)C(=O)NCC(=O)N[C@@H](CC(=O)O)C(=O)N[C@H](Cc2ccccc2)C(=O)N1C [tetrahydrate Form S3, cyclo-(Arg-Gly-Asp-DPhe-NMeVal)]

More lines, now with the values behind:

Compound: cyclo-(Arg-Gly-Asp-DPhe-NMeVal) [form S1]
mass loss in the first desorption cycle / initial drying step (0% rh) [1]: approx. 8 wt %
total mass loss in the second desorption cycle [1]: approx. 9.9 wt %
maximum weight gain upon water vapour adsorption (assembly of water molecules in the lattice) [1]: approx. 8 wt %

Compound: CC(C)[C@H]1C(=O)N[C@@H](CCCNC(=N)N)C(=O)NCC(=O)N[C@@H](CC(=O)O)C(=O)N[C@H](Cc2ccccc2)C(=O)N1C [crystalline form A1, cyclo-(Arg-Gly-Asp-DPhe-NMeVal)]
solubility at 16 h ([3]; water, at 20° C. or 25° C., preferably at 20° C.): ~7000 µg/mL (≈ 11.9 mM)
hygroscopicity classification acc. to Ph. Eur. criteria ([1]; water uptake up to 98% relative humidity): non-hygroscopic
thermodynamic stability of the form ([2]; in the presence of aqueous based solvents, absence of methanol and/or ethanol): thermodynamically stable form

Compound: CC(C)[C@H]1C(=O)N[C@@H](CCCN=C(N)N)C(=O)NCC(=O)N[C@@H](CC(=O)O)C(=O)N[C@H](Cc2ccccc2)C(=O)N1C [MSC1097999]
level at 0.25 h ([4]; 0.250 h): 586 ng/mL
level at 0.5 h ([4]; 0.500 h): 967 ng/mL
level at 2 h ([4]; 2.00 h): 892 ng/mL
level at 4 h ([4]; 4.00 h): 605 ng/mL
level at 8 h ([4]; 8.00 h): 537 ng/mL

Source: US9433577B2, “Pharmaceutical composition comprising oligopeptides” (Merck Patent GmbH, priority 2009, dated 2016)
